Experiment [1] can be described thus: ORAC-FL (oxygen radical absorbance capacity) assay. The experiment is classed as biochemical. Conditions: mean ± SEM, n = 3; 2 h; read-out: ORAC-FL IC50 (compound concentration required for 50% reduction of peroxyl radical) (converted).
On the set-up of experiment [2]: method as in PMID 16997555. As to conditions: relative to EDA; cited from earlier work.

As for `Cl.Nc1c(C(F)(F)F)nn(-c2ccccc2)c1O` [4a, 4-Amino-3-(trifluoromethyl)-1-phenyl-1H-pyrazol-5-ol hydrochloride], in experiment [1], the IC50 is 8.8 µM.

As for `Cc1nn(-c2ccccc2)c(O)c1N.Cl.O` [4d, 4-Amino-3-methyl-1-phenyl-1H-pyrazol-5-ol hydrochloride hydrate], the IC50 in experiment [1] is 6.85 µM.

As to “3-methyl-1-phenyl-2-pyrazolin-5-one [EDA, reference compound]”, in experiment [1], the IC50 was 5.6 µM.

In the case of `Oc1cc(C(F)(F)F)nn1-c1ccccc1` [CF3-EDA, 3-trifluoromethyl-1-phenylpyrazol-5-ol, reference compound], the IC50 in experiment [1] is 6.3 µM. In experiment [2], the “Times less active compared to EDA in the OH radical binding test” value was 3 times.

The values are drawn from publication PMC9699072 (Molecules, 2022).
